Measured values reported in publication PMC12301034, “Design and Synthesis of Boronic Chalcones with Dual Anticancer and Anti-Inflammatory Activity” (Molecules, 2025).
“Also recorded” adds a separate entry of the source.

How the values were obtained:
[1] = test system: SCC-25 cells; assay: MTT cytotoxicity assay on SCC-25 cells; format: cell-based, human; conditions: Homo sapiens, SCC-25; MTT, 24 h incubation, mean SEM of three experiments
Description: The SCC-25 (ATCC® CRL-1628™), Detroit-562 (ATCC® CCL-138™), and THP-1 (ATCC® TIB-202™) cells were purchased from Rio de Janeiro Cell Bank (Duque de Caxias, Brazil), and NOK-si was kindly provided by Prof. Carlos Rossa from the School of Dentistry—UNESP. All the cells were cultivated according to standard conditions. Human colorectal adenocarcinoma HCT116 cell lines (ATCC® CCL-247™) expressing p53 and its p53-null isogenic derivative (HCT116 p53^−/−) were provided by B. Vogelstein (The Johns Hopkins Kimmel Cancer Center, Baltimore, MD, USA).
Cells (NOK-si, SCC-25, and Detroit-562) were grown in a DMEM medium (Dulbecco’s Modified Eagle Medium), supplemented according to the needs of each lineage, as recommended by its cell banks, with 2 mM L-glutamine, 10% or 20% fetal bovine serum (FBS), 1% antibiotic–antimycotic solution (5 mg/mL penicillin, 5 mg/mL streptomycin, and 10 mg/mL neomycin), 4.5 g/L of glucose, and 3.7 g/L of sodium bicarbonate (NaHCO3). All cell lines were cultured in flasks at 37 °C in 5% carbon dioxide (CO2) and 95% of relative humidity. The assays were conducted between the third- and the seventh-cell passage, with sub-cultures every 3–4 days to maintain exponential growth. The cell viability was checked using the trypan blue dye exclusion assay for all experiments, where over 95% of the cells were viable at the beginning of the tests. NOK-si, SCC-25, and Detroit-562 were initially thawed and cultured in 25 cm^2 cell culture flasks. Cell growth was monitored using a microscope, and the culture medium was changed periodically. Upon reaching confluency, cell dissociation was achieved by adding 5 mL of trypsin (Sigma-Aldrich, St Louis, MO, USA) and incubating the bottles in a CO2 incubator for 10 min. Subsequently, the cells were transferred to 15 mL Falcon tubes and centrifuged at 2000 rpm for 10 min. Cell counting was performed using a Countess II FL automated cell counter (ThermoFischer, Waltham, MA, USA). The cells were seeded at a density of 30,000 cells per well in 96-well plates. The plates were then incubated at 37 °C in 5% CO2 for 24 h. Following this, test compounds were incubated for another 24 h at 10 different concentrations: 50, 25, 12.5, 6.25, 3.12, 1.56, 0.78, 0.39, 0.19, and 0.097 µg/mL. After the specified time, MTT reagent (3 mg/mL) (Sigma-Aldrich, St Louis, MO, USA) dissolved in phenol-free RPMI 1640 was added and incubated for 4 h. The formed MTT crystals were solubilized using 2-propanol P.A. (Sigma-Aldrich, St Louis, MO, USA) with agitation. Absorbance was read at 562 nm using an EZ Read 400 microplate reader (Biochrom, Cambridge, UK) and ADAP 2.0 Biochrom software (version 2.0). IC50 values and graphs were calculated using Excel and Prism software (version 10.4.1). The MTT assay results were evaluated for normality using the Shapiro–Wilk test, followed by one-way ANOVA with Tukey’s post hoc test at a significance level of 5%.

[2] = Metabolic stability in human liver microsomes; format: in vitro ADME
Description: (§1) The metabolic stability of test compounds and controls [imipramine (Sigma-Aldrich, St. Louis, MO, USA), verapamil (Sigma-Aldrich, St. Louis, MO, USA), and warfarin (Sigma-Aldrich, St. Louis, MO, USA)] were assessed using human pooled liver human microsomes (20 mg/mL) (GIBCO, Frederick, MD, USA) and pooled liver CD1 mouse microsomes (20 mg/mL) (GIBCO, Frederick, MD, USA). […] Microsomal suspensions were thawed and diluted in phosphate buffer to obtain a final concentration of 0.25 mg/mL. A solution of NADPH (Sigma-Aldrich, St. Louis, MO, USA) at […] was also prepared in phosphate buffer. […] The plate was incubated at 37 °C under shaking (100 rpm). […] The reactions were stopped by adding quenching solution (75 μL) consisting of acetonitrile:methanol (1:1) with an internal standard (50 nM). Samples were centrifuged (3500 rpm, 30 min) to remove precipitated microsomal proteins, and the supernatant fractions were analyzed by an LCMS-8045 system (Shimazu, Kyoto, Japan). The chromatographic analysis was performed using a Supelco Ascentis Express C18 column (3 cm × 2.1 mm, 5 μm). The mobile phases consisted of water + 0.1% formic acid (A) and acetonitrile + 0.1% formic acid (B). […] The run time was 2 min, with a sample injection volume of 10 μL and a flow rate of 0.7 mL/min. Metabolic stability was assessed by calculating the peak area ratios (analyte/internal standard) and converting them into the percentage of the compound remaining, using the area ratio at time 0 as 100%.

[3] = test system: SCC-25 cells; assay: Annexin V-FITC/PI apoptosis/necrosis assay; format: cell-based, human; conditions: SCC-25, 44.3 μM, 24 h
Description: For the assessment of the type of cell death, the treatment groups were 44.3 μM, 22.1 μM, and 9.45 μM compound 5, and the negative control without any treatment (only DMEM medium). Then, after 24 h of treatment, cell suspensions of 1 × 10^6 mL^–^1 (SCC-25) of each experimental condition were labeled, and the assay was performed according to the manufacturer’s protocol with the FITC Annexin V/Dead Cell Apoptosis Kit (Life Technologies, Eugene, OR, USA). Annexin V-FITC conjugated (510 nm) and propidium iodide (PI, 610 nm) fluorescence intensity were detected by automatic reading with the Countess™ II FL Automated Cell Counter (Life Technologies, Carlsbad, CA, USA). The cell population was calculated as a percentage of apoptotic cells labeled only with annexin V-FITC conjugated (green), necrotic cells labeled only as PI (red), and late apoptotic/necrotic cells (green and red).

[4] = Metabolic stability in mouse (CD-1) liver microsomes; format: in vitro ADME
Description: as §1

[5] = test system: SCC-25 cells; assay: Microscopy of cells after incubation with compound; format: cell-based, human; conditions: 24 h of incubation, 9.45 μM, SCC-25 vs NOK-si

Which results are given for COc1cccc(C(=O)/C=C/c2cccc(B(O)O)c2)c1 [Compound 5, (E)-(3-(3-(3-methoxyphenyl)-3-oxoprop-1-en-1-yl)phenyl)boronic acid]?
IC50 [1]: 17.9 ± 0.35 µM; intrinsic clearance (Clint) in HLM [2]: high clearance; microsomal CLint at 0.51 μM ([2]; human, microsomes, pH 7.4): 56.8 µL/min/mg; half-life at 0.51 μM ([2]; human, pooled liver microsomes, pH 7.4, read-out: Human Liver Microsome (HLM) T1/2): 48.8 min; microsomal CLint at 0.51 μM ([2]; human, pooled liver microsomes, pH 7.4, read-out: intrinsic clearance (Clint) in HLM): 77 µL/min/mg; viability at 44.3 µM ([3]; Homo sapiens, read-out: proportion of viable cells): < 5%; type of cell death ([3]; 22.1 μM and 9.45 μM): necrosis; also recorded: predominantly induces necrotic cell death; microsomal CLint at 0.51 μM ([4]; CD-1, mouse, microsomes, pH 7.4): 36 µL/min/mg; half-life at 0.51 μM ([4]; CD-1, mouse, pooled liver microsomes, pH 7.4, read-out: Mouse Liver Microsome (MsLM) T1/2): 56.8 min; Mouse Liver Microsome (MsLM) T1/2 ([4]; mouse): 77.02 min; morphological alterations [5]: morphological alterations suggesting cell death features
